Test results taken from publication PMC4468608, “A distinct p53 target gene set predicts for response to the selective p53–HDM2 inhibitor NVP-CGM097” (eLife, 2015).
Where two headings read alike, the source gives them in different places.

How the values were obtained:
[1] = PK parameters in preclinical species; format: in vivo; details: Rat
HCT-116 p53WT = experiment: Cell proliferation assay (YOPRO); format: cell-based; details: Homo sapiens, HCT-116, read-out: HCT-116 p53WT GI50
Procedure: (§1) Figure 1. […] (^d) Selectivity is determined by the ratio of GI50 obtained using SAOS-2 (p53-null) and SJSA-1 (p53^WT and HDM2-amplified) osteosarcoma pair of cell lines. […] The data used to generate these plots, as well as cell line identity is available in Figure 1—source data 1. […] The blue color indicates the reverse profile. Brighter colors indicate which target classes pass the 0.25 FDR cut-off.
(§2) All other cell lines were obtained from ATCC (American Type Culture Collection), DSMZ (Deutsche Sammlung von Mikroorganismen und Zellkulturen), and HSRRB (Health Science Research Resources Bank) and cultured in RPMI or Dulbecco's modified Eagle's medium plus 10% FBS (Invitrogen, Carlsbad, CA) at 37°C, 5% CO2.

SAOS-2 (p53-null) = experiment: Cell proliferation assay (YOPRO); format: cell-based; details: Homo sapiens
Procedure: as §1, §2

[2] = test system: SJSA-1 (p53WT and HDM2-amplified); experiment: Cell proliferation assay (YOPRO); format: cell-based; details: Homo sapiens, SJSA-1, read-out: SJSA-1 GI50
Procedure: as §1, §2

HCT-116 p53-null = experiment: Cell proliferation assay (YOPRO); format: cell-based; details: Homo sapiens, HCT116-p53-null
Procedure: as §1, §2

[3] = PK parameters in preclinical species; format: in vivo; details: Monkey
[4] = PK parameters in preclinical species; format: in vivo; details: Mouse
[5] = PK parameters in preclinical species; format: in vivo; details: Dog
[6] = single dose 1 mg/kg i.v. or 3 mg/kg p.o.
[7] = in vivo, iv, 1 mg/kg i.v., dose-normalized to 1 mg/kg, read-out: AUCinf i.v.
[8] = in vivo, iv, single dose 1 mg/kg i.v. or 3 mg/kg p.o.
[9] = in vivo, iv, single dose 1 mg/kg i.v. or 3 mg/kg p.o., read-out: Vss
[10] = in vivo, po, 3 mg/kg p.o., dose-normalized to 1 mg/kg
[11] = in vivo, po, 3 mg/kg p.o., dose-normalized to 1 mg/kg, read-out: AUCinf p.o.
[12] = single dose 0.1 mg/kg i.v. or 0.3 mg/kg p.o.
[13] = in vivo, iv, 0.1 mg/kg i.v., dose-normalized to 1 mg/kg, read-out: AUCinf i.v.
[14] = in vivo, iv, single dose 0.1 mg/kg i.v. or 0.3 mg/kg p.o.
[15] = in vivo, iv, single dose 0.1 mg/kg i.v. or 0.3 mg/kg p.o., read-out: Vss
[16] = in vivo, po, 0.3 mg/kg p.o., dose-normalized to 1 mg/kg
[17] = in vivo, po, 0.3 mg/kg p.o., dose-normalized to 1 mg/kg, read-out: AUCinf p.o.

With `COc1cc2c(cc1OC(C)C)[C@H](c1ccc(Cl)cc1)N(c1ccc(N(C)C[C@H]3CC[C@H](N4CCNC(=O)C4)CC3)cc1)C(=O)C2` [NVP-CFC218] the “Oral BA” value ([1]; 1 mg/kg i.v., 3 mg/kg p.o.) was 49 ± 15 %F, the t1/2app. [1, 6] was 9.3 ± 1.9 h and the AUC(0-inf) [1, 7] was 2.21 ± 0.21 µM·h. For the same molecule, the clearance [1, 8] was 12 ± 1 mL/min/kg, the Vd [1, 9] was 8 ± 1.8 L/kg and the Tmax ([1]; in vivo, po, 3 mg/kg p.o.) was 4 ± 1.4 h. The Cmax [1, 10] was 75 ± 23 nM, the AUC(0-inf) [1, 11] was 1.07 ± 0.34 µM·h and the GI50 (HCT-116 p53WT) was 0.473 ± 0.1 µM. For the same molecule, the GI50 (SAOS-2 (p53-null); SAOS-2, mean ± SD, n ≥ 8) was 19.8 µM, the IC50 (SAOS-2 (p53-null); SAOS-2 p53 null cells remained insensitive) was at least 10 µM and the GI50 [2] was 0.353 ± 0.172 µM. The IC50 (HCT-116 p53-null; HCT-116 p53-null cells remained insensitive) was at least 10 µM, the GI50 (HCT-116 p53-null; mean ± SD, n ≥ 8) was 15.9 µM and the “Oral BA” value ([3]; 0.1 mg/kg i.v., 0.3 mg/kg p.o.) was 14 ± 2 %F. It also gave a t1/2app. [3, 12] of 2.6 ± 0.3 h, an AUC(0-inf) [3, 13] of 2.37 ± 0.31 µM·h and a clearance [3, 14] of 11 ± 2 mL/min/kg. For the same molecule, the Vd [3, 15] was 2.1 ± 0.3 L/kg, the Tmax ([3]; in vivo, po, 0.3 mg/kg p.o.) was 1 ± 0.1 h and the Cmax [3, 16] was 77 ± 14 nM. The AUC(0-inf) [3, 17] was 0.34 ± 0.05 µM·h, the “Oral BA” value ([4]; 1 mg/kg i.v., 3 mg/kg p.o.) was 43 %F and the t1/2app. [4, 6] was 3.6 h. For the same molecule, the AUC(0-inf) [4, 7] was 2.8 µM·h, the clearance [4, 8] was 9 mL/min/kg and the Vd [4, 9] was 3.1 L/kg. For the same molecule, the Tmax ([4]; in vivo, po, 3 mg/kg p.o.) was 2 h, the Cmax [4, 10] was 94 nM and the AUC(0-inf) [4, 11] was 1.2 µM·h. The “Oral BA” value ([5]; 0.1 mg/kg i.v., 0.3 mg/kg p.o.) was 71 ± 8 %F, the t1/2app. [5, 12] was 14.4 ± 0.7 h and the AUC(0-inf) [5, 13] was 8.08 ± 1.68 µM·h. It also gave a clearance [5, 14] of 3 ± 1 mL/min/kg, a Vd [5, 15] of 3.6 ± 0.5 L/kg and a Tmax ([5]; in vivo, po, 0.3 mg/kg p.o.) of 3.3 ± 1.2 h. For the same molecule, the Cmax [5, 16] was 240 ± 43 nM and the AUC(0-inf) [5, 17] was 5.74 ± 0.68 µM·h.
